The results in this text go back to US9452986B2, “6-heteroaryloxy- or 6-aryloxy-quinoline-2-carboxamides and method of use” (AbbVie Inc., priority 2014, dated 2016).

This test concerns the target recombinant human Nav1.7 (Homo sapiens (Human), UniProt Q15858). In words: FRET-based membrane potential assay, recombinant human sodium channel Nav1.7. It counts as cell-based. The settings on record: read-out: FRET-Membrane Potential Nav1.7 IC50. The method in brief:
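Channel activation used veratridine at its EC80, set by a dilution curve each experiment, together with Leiurus scorpion venom, added 3 min after compound. Membrane-potential ratio signals from FLIPR Tetra in HEPES-buffered HBSS were fitted to a four-parameter Hill equation for percent inhibition and IC50.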

[1] abbreviates: HEK293 cells stably expressing recombinant human Nav1.7, veratridine + scorpion venom depolarization.

Read-outs that look alike come from different tables or passages of the source.

Sequence of recombinant human Nav1.7 (Q15858 whole entry): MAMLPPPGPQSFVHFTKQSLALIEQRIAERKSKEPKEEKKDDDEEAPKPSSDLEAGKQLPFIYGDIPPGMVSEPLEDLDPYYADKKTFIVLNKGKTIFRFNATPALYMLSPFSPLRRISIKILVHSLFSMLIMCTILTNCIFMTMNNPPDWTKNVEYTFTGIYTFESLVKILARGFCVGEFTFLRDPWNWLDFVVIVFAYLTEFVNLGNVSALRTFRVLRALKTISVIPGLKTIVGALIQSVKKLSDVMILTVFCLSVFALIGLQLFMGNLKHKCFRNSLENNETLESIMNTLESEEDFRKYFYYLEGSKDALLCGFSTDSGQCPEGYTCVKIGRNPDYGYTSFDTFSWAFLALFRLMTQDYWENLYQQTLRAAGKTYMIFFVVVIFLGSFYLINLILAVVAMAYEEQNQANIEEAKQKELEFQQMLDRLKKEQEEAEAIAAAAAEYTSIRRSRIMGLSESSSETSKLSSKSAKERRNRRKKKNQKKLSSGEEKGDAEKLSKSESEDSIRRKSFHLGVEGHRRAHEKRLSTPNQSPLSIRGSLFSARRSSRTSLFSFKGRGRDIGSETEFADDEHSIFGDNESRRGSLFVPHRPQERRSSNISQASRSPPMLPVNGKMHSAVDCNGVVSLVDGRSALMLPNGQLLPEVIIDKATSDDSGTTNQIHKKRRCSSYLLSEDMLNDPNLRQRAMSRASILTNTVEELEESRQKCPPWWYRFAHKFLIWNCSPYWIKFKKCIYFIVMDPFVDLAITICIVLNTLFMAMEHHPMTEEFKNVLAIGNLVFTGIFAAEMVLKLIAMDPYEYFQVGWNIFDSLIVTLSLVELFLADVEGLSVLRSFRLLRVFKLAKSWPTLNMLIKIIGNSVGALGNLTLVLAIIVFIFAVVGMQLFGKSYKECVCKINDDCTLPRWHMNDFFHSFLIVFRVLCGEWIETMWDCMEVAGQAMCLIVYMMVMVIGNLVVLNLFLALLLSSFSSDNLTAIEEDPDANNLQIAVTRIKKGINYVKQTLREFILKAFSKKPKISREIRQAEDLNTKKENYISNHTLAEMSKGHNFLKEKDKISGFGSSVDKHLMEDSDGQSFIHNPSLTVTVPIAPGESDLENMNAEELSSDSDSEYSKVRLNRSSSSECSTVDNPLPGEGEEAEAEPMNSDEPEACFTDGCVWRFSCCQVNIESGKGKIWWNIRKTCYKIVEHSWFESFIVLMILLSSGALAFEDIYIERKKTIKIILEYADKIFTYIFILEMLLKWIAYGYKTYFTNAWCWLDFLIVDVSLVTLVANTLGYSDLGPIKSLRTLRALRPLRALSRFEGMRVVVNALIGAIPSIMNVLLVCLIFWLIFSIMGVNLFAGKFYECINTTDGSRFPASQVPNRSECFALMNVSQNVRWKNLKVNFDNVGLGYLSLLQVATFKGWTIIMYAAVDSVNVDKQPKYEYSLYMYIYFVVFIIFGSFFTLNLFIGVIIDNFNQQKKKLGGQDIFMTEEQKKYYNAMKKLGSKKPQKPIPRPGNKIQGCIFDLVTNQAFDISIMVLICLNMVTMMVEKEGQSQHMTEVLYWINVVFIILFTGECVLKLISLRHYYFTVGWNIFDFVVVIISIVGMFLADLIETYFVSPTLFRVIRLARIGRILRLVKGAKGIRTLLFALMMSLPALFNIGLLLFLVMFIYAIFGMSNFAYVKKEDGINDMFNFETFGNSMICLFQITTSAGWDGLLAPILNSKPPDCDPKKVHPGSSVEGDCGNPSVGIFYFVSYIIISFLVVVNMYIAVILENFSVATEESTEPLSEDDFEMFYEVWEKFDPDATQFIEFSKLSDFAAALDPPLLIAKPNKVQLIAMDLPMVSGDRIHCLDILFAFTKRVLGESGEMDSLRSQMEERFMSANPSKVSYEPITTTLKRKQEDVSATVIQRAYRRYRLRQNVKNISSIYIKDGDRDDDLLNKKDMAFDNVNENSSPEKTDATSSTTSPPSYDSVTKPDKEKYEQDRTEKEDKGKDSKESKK

Take `O=C1NCCN2CCN(C(=O)c3ccc4cc(Oc5ccc(C(F)(F)F)cn5)ccc4n3)CC12` (centres unmarked) [Example 169, 8-[(6-{[5-(trifluoromethyl)pyridin-2-yl]oxy}quinolin-2-yl)carbonyl]hexahydro-2H-pyrazino[1,2-a]pyrazin-1(6H)-one]: the IC50 under setting [1] was found to be 17.2 µM.
`O=C(NCCO)c1ccc2cc(Oc3ccc(C(F)(F)F)cn3)ccc2n1` [Example 326, N-(2-hydroxyethyl)-6-{[5-(trifluoromethyl)pyridin-2-yl]oxy}quinoline-2-carboxamide]: the IC50 stood at 3.15 µM.
For the compound `O=C(NC1COC1)c1ccc2cc(Oc3ccc(C(F)(F)F)cn3)ccc2n1` [Example 399, N-(oxetan-3-yl)-6-{[5-(trifluoromethyl)pyridin-2-yl]oxy}quinoline-2-carboxamide], the IC50 under setting [1] came to 0.375 µM.
As for `N#Cc1ccc(Oc2ccc3nc(C(=O)N4CCNC(=O)C4)ccc3c2)cc1` [Example 137, 4-({2-[(3-oxopiperazin-1-yl)carbonyl]quinolin-6-yl}oxy)benzonitrile], under setting [1], the IC50 was determined as 8.24 µM.
Same read-out and setting: the figure for `CN1CCCN(C(=O)c2ccc3cc(Oc4ccc(C(F)(F)F)cn4)ccc3n2)CC1` [Example 260, (4-methyl-1,4-diazepan-1-yl)(6-{[5-(trifluoromethyl)pyridin-2-yl]oxy}quinolin-2-yl)methanone] is 1.04 µM.
`O=C(c1ccc2cc(Oc3ccc(C(F)(F)F)cn3)ccc2n1)N1CC(N2CCNCC2)C1` [Example 557, [3-(piperazin-1-yl)azetidin-1-yl](6-{[5-(trifluoromethyl)pyridin-2-yl]oxy}quinolin-2-yl)methanone]: the IC50 is 16.7 µM.
Regarding `O=C(c1ccc2cc(Oc3ccc(C(F)F)cn3)ccc2n1)N1CC(N2CCOCC2)C1` [Example 429, (6-{[5-(difluoromethyl)pyridin-2-yl]oxy}quinolin-2-yl) [3-(morpholin-4-yl)azetidin-1-yl]methanone], the IC50 was determined as 13.8 µM.
Same read-out and setting: the figure for `N#Cc1ccc(Oc2ccc3nc(C(=O)N[C@H]4CCOC4)ccc3c2)cc1` [Example 118, 6-(4-cyanophenoxy)-N-[(3S)-tetrahydrofuran-3-yl]quinoline-2-carboxamide] is 2.27 µM.
With `O=C(c1ccc2cc(Oc3ccc(C(F)(F)F)cn3)ccc2n1)N1CCN(C(=O)C2CC2)CC1` [Example 290, cyclopropyl{4-[(6-{[5-(trifluoromethyl)pyridin-2-yl]oxy}quinolin-2-yl)carbonyl]piperazin-1-yl}methanone], the IC50 under setting [1] worked out at 9.86 µM.
Turning to `O=C(c1ccc2cc(Oc3ccc(C(F)(F)F)cn3)ccc2n1)N1C[C@@H]2C[C@H](CO)[C@H]1C2` [Example 258, [(1R,4R,6S)-6-(hydroxymethyl)-2-azabicyclo[2.2.1]hept-2-yl](6-{[5-(trifluoromethyl)pyridin-2-yl]oxy}quinolin-2-yl)methanone], the IC50 under setting [1] worked out at 6.13 µM.
Consider `O=C(NCCN1CCOC1=O)c1ccc2cc(Oc3ccc(C(F)(F)F)cn3)ccc2n1` [Example 605, N-[2-(2-oxo-1,3-oxazolidin-3-yl)ethyl]-6-{[5-(trifluoromethyl)pyridin-2-yl]oxy}quinoline-2-carboxamide], for which, under setting [1], the IC50 stood at 2.88 µM.
Same read-out and setting: to `N#Cc1ccc(Oc2ccc3nc(C(=O)N[C@H]4CC[C@@H](O)CC4)ccc3c2)cc1` [Example 133, 6-(4-cyanophenoxy)-N-(cis-4-hydroxycyclohexyl)quinoline-2-carboxamide] belongs 1.17 µM.
For `N#Cc1ccc(Oc2ccc3nc(C(=O)N[C@H]4CCCC[C@@H]4O)ccc3c2)cc1` [Example 120, 6-(4-cyanophenoxy)-N-[(1S,2S)-2-hydroxycyclohexyl]quinoline-2-carboxamide], the IC50 is 2.04 µM.
Take `CC(=O)Nc1nc(C)c(S(=O)(=O)N2CCN(C(=O)c3ccc4cc(Oc5ccc(C(F)(F)F)cn5)ccc4n3)CC2)s1` [Example 388, N-[4-methyl-5-({4-[(6-{[5-(trifluoromethyl)pyridin-2-yl]oxy}quinolin-2-yl)carbonyl]piperazin-1-yl}sulfonyl)-1,3-thiazol-2-yl]acetamide]: under setting [1], the IC50 was above 20 µM.
With `CN(C)C(=O)[C@H](Cc1ccccc1)NC(=O)c1ccc2cc(Oc3ccc(C(F)(F)F)cn3)ccc2n1` [Example 501, N-[(2S)-1-(dimethylamino)-1-oxo-3-phenylpropan-2-yl]-6-{[5-(trifluoromethyl)pyridin-2-yl]oxy}quinoline-2-carboxamide], the IC50 worked out at 0.734 µM.
For `O=C(c1ccc2cc(Oc3ccc(C(F)(F)F)cn3)ccc2n1)N1CCN2C(=O)OC[C@H]2C1` [Example 333, (8aR)-7-[(6-{[5-(trifluoromethyl)pyridin-2-yl]oxy}quinolin-2-yl)carbonyl]hexahydro[1,3]oxazolo[3,4-a]pyrazin-3-one], under setting [1], the IC50 is above 20 µM.
For `O=C1CC(NC(=O)c2ccc3cc(Oc4ccc(C(F)(F)F)cn4)ccc3n2)C1` [Example 432, N-(3-oxocyclobutyl)-6-{[5-(trifluoromethyl)pyridin-2-yl]oxy}quinoline-2-carboxamide], under setting [1], the IC50 came to 2.87 µM.
As to `COC1CN(C(=O)CNC(=O)c2ccc3cc(Oc4ccc(C(F)(F)F)cn4)ccc3n2)C1` [Example 569, N-[2-(3-methoxyazetidin-1-yl)-2-oxoethyl]-6-{[5-(trifluoromethyl)pyridin-2-yl]oxy}quinoline-2-carboxamide], the IC50 under setting [1] worked out at 1.21 µM.
In the case of `O=C(c1ccc2cc(Oc3ccc(C(F)(F)F)cn3)ccc2n1)N1CC(F)C(F)C1` (centres unmarked) [Example 415, (3,4-difluoropyrrolidin-1-yl)(6-{[5-(trifluoromethyl)pyridin-2-yl]oxy}quinolin-2-yl)methanone], the IC50 under setting [1] was 1.61 µM.
Still for that read-out and setting: to `O=C(c1ccc2cc(Oc3ccc(C(F)(F)F)cn3)ccc2n1)N1CCN(C2COC2)CC1` [Example 252, [4-(oxetan-3-yl)piperazin-1-yl](6-{[5-(trifluoromethyl)pyridin-2-yl]oxy}quinolin-2-yl)methanone] belongs above 20 µM.
`O=C(c1ccc2cc(Oc3ccc(C(F)(F)F)cn3)ccc2n1)N1CCN(CCC(F)(F)F)CC1` [Example 311, (6-{[5-(trifluoromethyl)pyridin-2-yl]oxy}quinolin-2-yl)[4-(3,3,3-trifluoropropyl)piperazin-1-yl]methanone]: the IC50 was 3.11 µM.
In the case of `CCN(CC)C(=O)CCNC(=O)c1ccc2cc(Oc3ccc(C(F)F)cn3)ccc2n1` [Example 467, N-[3-(diethylamino)-3-oxopropyl]-6-{[5-(difluoromethyl)pyridin-2-yl]oxy}quinoline-2-carboxamide], the IC50 under setting [1] was determined as 0.521 µM.
On to `N#Cc1ccc(Oc2ccc3nc(C(=O)NCc4cccc(OC(F)(F)F)c4)ccc3c2)cc1` [Example 102, 6-(4-cyanophenoxy)-N-[3-(trifluoromethoxy)benzyl]quinoline-2-carboxamide], for which the 50% inhibitory concentration (IC50) under setting [1] is above 20 µM.
As for `CCOCCNC(=O)c1ccc2cc(Oc3ccc(C#N)cc3)ccc2n1` [Example 108, 6-(4-cyanophenoxy)-N-(2-ethoxyethyl)quinoline-2-carboxamide], the IC50 under setting [1] is 2.41 µM.
Still for that read-out and setting: the figure for `O=C(NCC(=O)N1CCC(F)C1)c1ccc2cc(Oc3ccc(C(F)(F)F)cn3)ccc2n1` (centres unmarked) [Example 573, N-[2-(3-fluoropyrrolidin-1-yl)-2-oxoethyl]-6-{[5-(trifluoromethyl)pyridin-2-yl]oxy}quinoline-2-carboxamide] is 0.987 µM; for `CN1CCC(NC(=O)c2ccc3cc(Oc4ccc(C(F)(F)F)cn4)ccc3n2)C1=O` (centres unmarked) [Example 587, N-(1-methyl-2-oxopyrrolidin-3-yl)-6-{[5-(trifluoromethyl)pyridin-2-yl]oxy}quinoline-2-carboxamide] it is 1.02 µM; for `CC(C)NC(=O)CN(C)C(=O)c1ccc2cc(Oc3ccc(C(F)F)cn3)ccc2n1` [Example 468, 6-{[5-(difluoromethyl)pyridin-2-yl]oxy}-N-[2-(isopropylamino)-2-oxoethyl]-N-methylquinoline-2-carboxamide] it is 13.8 µM.
Same read-out and setting: the figure for `O=C(c1ccc2cc(Oc3ccc(C(F)(F)F)cn3)ccc2n1)N1CC[C@@H](N2CCCCC2)C1` [Example 319, [(3R)-3-(piperidin-1-yl)pyrrolidin-1-yl](6-{[5-(trifluoromethyl)pyridin-2-yl]oxy}quinolin-2-yl)methanone] is 0.285 µM.
Still for that read-out and setting: the figure for `O=C(NC1CCSCC1)c1ccc2cc(Oc3ccc(C(F)(F)F)cn3)ccc2n1` [Example 400, N-(tetrahydro-2H-thiopyran-4-yl)-6-{[5-(trifluoromethyl)pyridin-2-yl]oxy}quinoline-2-carboxamide] is 1.22 µM; for `O=C(NC1CCNCC1)c1ccc2cc(Oc3ccc(C(F)(F)F)cn3)ccc2n1` [Example 264, N-(piperidin-4-yl)-6-{[5-(trifluoromethyl)pyridin-2-yl]oxy}quinoline-2-carboxamide] it is 3.21 µM.
Consider `O=C1CN(C(=O)c2ccc3cc(Oc4ccc(C(F)(F)F)cn4)ccc3n2)CCCN1` [Example 343, 4-[(6-{[5-(trifluoromethyl)pyridin-2-yl]oxy}quinolin-2-yl)carbonyl]-1,4-diazepan-2-one], for which the IC50 under setting [1] is above 20 µM.
On to `Cc1ccnc(Oc2ccc3nc(C(=O)NC4CCS(=O)(=O)C4)ccc3c2)n1` (centres unmarked) [Example 163, N-(1,1-dioxidotetrahydrothiophen-3-yl)-6-[(4-methylpyrimidin-2-yl)oxy]quinoline-2-carboxamide], for which, under setting [1], the IC50 is above 20 µM.
On the same count and under the same terms, the figure for `NC(=O)c1ccc2cc(Oc3ccc(C(F)(F)F)cn3)ccc2n1` [Example 210, 6-{[5-(trifluoromethyl)pyridin-2-yl]oxy}quinoline-2-carboxamide] is above 20 µM.
On the same count and under the same terms, the figure for `CC(C)(O)CNC(=O)c1ccc2cc(Oc3ccc(C#N)cc3)ccc2n1` [Example 122, 6-(4-cyanophenoxy)-N-(2-hydroxy-2-methylpropyl)quinoline-2-carboxamide] is 2.49 µM.
In the case of `CC(C)(C)CC(=O)N1CCN(C(=O)c2ccc3cc(Oc4ccc(C(F)(F)F)cn4)ccc3n2)CC1` [Example 309, 3,3-dimethyl-1-{4-[(6-{[5-(trifluoromethyl)pyridin-2-yl]oxy}quinolin-2-yl)carbonyl]piperazin-1-yl}butan-1-one], the IC50 under setting [1] is 3.57 µM.
